# Assay results from patent US20120252865A1, “CARBAMATE DERIVATIVES IN PARTICULAR FOR THE TREATMENT OF NEUROLOGICAL DISORDERS” (SIGMA-TAU INDUSTRIE FARMACEUTICHE RIUNITE S.P.A., priority 2009, published 2012).
# Legend:
# [1] = molecular target: T1, fatty acid amide hydrolase (FAAH, EC 3.5.1.4) (Mus musculus, UniProt O08914); assay: FAAH assay: release of [1-14C]AA from [1-14C]AnNH by RP-HPLC; assay type: biochemical; details: mouse brain homogenate; for IC50: 37° C., 15 min, pH 9.0; for Ki: Lineweaver-Burk analysis
# T1 construct: The reaction was initiated by the addition of mouse brain homogenate (40 μg); from tissue; host or cells: mouse brain homogenate
# T1 sequence (O08914 1-579): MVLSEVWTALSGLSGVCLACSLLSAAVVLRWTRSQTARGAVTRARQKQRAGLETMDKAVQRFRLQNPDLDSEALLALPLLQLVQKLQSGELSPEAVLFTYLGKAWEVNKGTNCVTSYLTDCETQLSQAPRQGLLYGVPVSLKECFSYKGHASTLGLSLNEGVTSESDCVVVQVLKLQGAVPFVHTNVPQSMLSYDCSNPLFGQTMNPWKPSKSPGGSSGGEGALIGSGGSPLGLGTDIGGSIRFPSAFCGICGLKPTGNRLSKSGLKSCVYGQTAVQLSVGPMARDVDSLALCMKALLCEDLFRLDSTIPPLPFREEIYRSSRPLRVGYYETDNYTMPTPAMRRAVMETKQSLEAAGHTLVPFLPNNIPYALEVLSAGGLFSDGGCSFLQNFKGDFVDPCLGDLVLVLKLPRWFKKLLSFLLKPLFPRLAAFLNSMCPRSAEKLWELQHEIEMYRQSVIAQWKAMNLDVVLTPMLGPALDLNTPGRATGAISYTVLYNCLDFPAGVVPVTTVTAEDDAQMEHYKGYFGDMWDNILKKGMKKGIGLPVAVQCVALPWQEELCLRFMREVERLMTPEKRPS
# Procedure: The compounds of the present invention show affinity and inhibit the enzymatic activity of the fatty acid amide hydrolase enzyme.
# The assay of FAAH (EC 3.5.1.4) was performed by measuring the release of [1-^14C]AA from [1-^14C]AnNH (52 mCi/mmol), using RP-HPLC. Also [^3H]AnNH (205 Ci/mmol) could be used as substrate, measuring the release of [^3H]AA under the same experimental conditions described below for [1-^14C]AnNH. Compounds of the invention, at various concentrations, were added in 200 μl hydrolase assay buffer (50 mM Tris-HCl, pH 9.0), in 2-ml Eppendorf tubes, 20 min before adding [1-^14C]AnNH2, up to a concentration of 10 μM. The reaction was initiated by the addition of mouse brain homogenate (40 μg), and after incubation at 37° C. for 15 min it was stopped by the addition of 800 μl ice-cold methanol/chloroform (2:1, v/v) with vortexing. This mixture was allowed to stand at room temperature for 30 min, then 240 μl chloroform and 240 μl water were added with vortexing. After 10 min at room temperature, the mixture was centrifuged at 3000 g for 5 min, the upper aqueous layer was removed by suction and the lower organic phase was dried by spinning the samples in a DNA MINI speedvac (Heto-Holten, Denmark), at 100 mbar and 30° C. for 30 min. The residue was dissolved into 50 μl methanol and subjected to RP-HPLC analysis for AA quantitation, as detailed below. FAAH specific activity was expressed as pmol AA released/min/mg protein. Kinetic studies were performed by Lineweaver-Burk analysis, using [1-^14C]AnNH, [1-^14C]ODNHEtOH, or [1-^14C]ODNH2 in the concentration range 0-12 μM. Fitting of the experimental points by a linear regression programme (Kaleidagraph 3.0) yielded straight lines with r values >0.97.
# mechanical hyperalgesia = assay: Paw withdrawal test for mechanical hyperalgesia (Randall-Selitto analgesimeter); assay type: in vivo; details: rat; for analgesic activity (nociceptive threshold, paw withdrawal): acute oral treatment, 30 mg/kg (FIG. 1)
# Procedure: The paw withdrawal test was used to assess mechanical hyperalgesia. The nociceptive threshold, expressed in grams, was measured by applying increasing pressure to the left and right hind paws using a Randall-Selitto analgesimeter (Ugo Basile, Varese, Italy). The parameter used to quantify the nociceptive threshold was defined as the pressure (grams) at which the rat withdrew its paw. Rats were habituated to the testing procedures and handling by the investigator in the week prior to the experiment.
# Dose response experiments at 10, 30 and 100 mg/kg were also conducted with ST4068, ST3911 and ST3913.
# CB1R = CB1R (Homo sapiens, UniProt P21554); assay: Selectivity profile: CB1R; assay type: binding; details: tested at a multiple of the FAAH IC50
# Sequence of CB1R (P21554 whole entry): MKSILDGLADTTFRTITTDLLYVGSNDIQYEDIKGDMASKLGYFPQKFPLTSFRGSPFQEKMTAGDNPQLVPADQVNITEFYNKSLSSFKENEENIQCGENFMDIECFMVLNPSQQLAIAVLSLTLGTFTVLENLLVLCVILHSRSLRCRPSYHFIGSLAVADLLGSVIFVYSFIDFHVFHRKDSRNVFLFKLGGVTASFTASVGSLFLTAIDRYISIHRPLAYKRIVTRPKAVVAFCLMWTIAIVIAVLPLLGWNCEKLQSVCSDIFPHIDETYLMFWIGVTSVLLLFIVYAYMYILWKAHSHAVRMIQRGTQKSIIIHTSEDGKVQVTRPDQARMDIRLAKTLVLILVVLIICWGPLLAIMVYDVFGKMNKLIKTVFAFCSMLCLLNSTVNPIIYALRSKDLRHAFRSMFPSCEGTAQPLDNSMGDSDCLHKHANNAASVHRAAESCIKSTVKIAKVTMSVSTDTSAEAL
# Procedure: (§1) The compounds of the present invention were also evaluated with regard to their selectivity profile against the following targets: AMT, NAPE-PLD, MAGL, DAGL, CB1/CB2 and TRPV1 according to the procedures described in Maccarrone M., et al., J. Biol. Chem., 2000, 275, 13484, Fezza F., et al., Anal Biochem., 2005, 339, 113, Dinh T. P., et al., 2002, Proc. Natl. Acad. Sci. 99, 10819, Bisogno T., et al., 2003, J. Cell Biol., 163, 463, Maccarrone M., et al., J. Biol. Chem., 2000, 275, 31938, Ross R. A., et al., Br. J. Pharmacol., 2001, 132, 631.
# CB2R = CB2R (Homo sapiens, UniProt P34972); assay: Selectivity profile: CB2R; assay type: binding; details: tested at a multiple of the FAAH IC50
# Sequence of CB2R (P34972 whole entry): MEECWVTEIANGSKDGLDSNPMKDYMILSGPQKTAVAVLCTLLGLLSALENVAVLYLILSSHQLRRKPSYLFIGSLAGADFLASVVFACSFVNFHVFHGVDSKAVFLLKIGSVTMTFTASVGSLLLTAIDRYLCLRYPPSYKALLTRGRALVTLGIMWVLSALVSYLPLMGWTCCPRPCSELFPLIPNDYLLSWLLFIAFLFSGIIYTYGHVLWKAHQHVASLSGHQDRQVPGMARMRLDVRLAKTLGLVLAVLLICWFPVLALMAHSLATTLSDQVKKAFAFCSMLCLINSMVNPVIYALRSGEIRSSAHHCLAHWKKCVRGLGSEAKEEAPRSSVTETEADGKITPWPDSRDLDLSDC
# Procedure: as §1
# TRPV1 = assay: Selectivity profile: TRPV1; assay type: binding; details: tested at a multiple of the FAAH IC50
# Procedure: as §1
# NAPE-PLD = NAPE-PLD (Homo sapiens, UniProt Q6IQ20); assay: Selectivity profile: NAPE-PLD; assay type: biochemical; details: tested at a multiple of the FAAH IC50
# Sequence of NAPE-PLD (Q6IQ20 whole entry, species assumed): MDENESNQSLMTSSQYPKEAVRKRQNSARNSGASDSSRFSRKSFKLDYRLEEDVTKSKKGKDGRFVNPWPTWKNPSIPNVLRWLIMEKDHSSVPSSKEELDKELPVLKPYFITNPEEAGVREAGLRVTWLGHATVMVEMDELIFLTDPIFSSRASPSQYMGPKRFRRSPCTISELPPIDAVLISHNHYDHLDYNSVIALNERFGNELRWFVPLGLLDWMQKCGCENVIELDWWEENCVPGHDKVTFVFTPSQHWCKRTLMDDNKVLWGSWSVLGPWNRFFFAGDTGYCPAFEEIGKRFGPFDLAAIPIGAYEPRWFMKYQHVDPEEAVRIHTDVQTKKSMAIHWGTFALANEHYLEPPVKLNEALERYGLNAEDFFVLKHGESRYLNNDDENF
# Procedure: as §1
# AMT = assay: Selectivity profile: AMT; assay type: cell-based
# Procedure: as §1
# DAGL = assay: Selectivity profile: DAGL; assay type: biochemical; details: tested at a multiple of the FAAH IC50
# Procedure: as §1
# MAGL = molecular target: T2, MAGL (Homo sapiens, UniProt Q99685); assay: Selectivity profile: MAGL; assay type: biochemical; details: tested at a multiple of the FAAH IC50
# T2 sequence (Q99685 1-303): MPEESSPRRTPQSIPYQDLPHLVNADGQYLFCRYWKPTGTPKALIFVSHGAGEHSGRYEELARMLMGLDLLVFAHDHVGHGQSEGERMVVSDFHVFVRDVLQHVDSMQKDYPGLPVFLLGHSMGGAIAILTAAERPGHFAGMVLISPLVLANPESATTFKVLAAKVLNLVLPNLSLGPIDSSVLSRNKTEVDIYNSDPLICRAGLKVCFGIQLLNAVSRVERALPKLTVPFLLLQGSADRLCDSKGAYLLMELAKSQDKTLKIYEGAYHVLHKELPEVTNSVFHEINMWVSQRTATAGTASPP
# Procedure: as §1
# [2] = 100 mg/kg, compared with 30 mg/kg (FIGS. 2, 3 and 4)
smiles,measurement,setting,value
"Cc1cc(C(N)=O)c(-c2cccc(OC(=O)NCCCCCCc3ccccc3)c2)o1 [Example 6, (6-phenyl-hexyl)-carbamic acid 3-(3-carbamoyl-5-methyl-furan-2-yl)-phenyl ester]",IC50,[1],< 10 nM
same,Ki,[1],< 10 nM
same,"analgesic activity, dose response","mechanical hyperalgesia; 30 mg/kg (FIGS. 2, 3 and 4)",did exert analgesic activity
same,"analgesic activity, dose response",mechanical hyperalgesia; [2],higher effect
same,"analgesic activity (nociceptive threshold, paw withdrawal)",mechanical hyperalgesia,significant analgesic activity
"CCCCNC(=O)Oc1cccc(-c2oc(C)cc2C(=O)OCC)c1 [Example 10, 2-(3-butylcarbamoyloxy-phenyl)-5-methyl-furan-3-carboxylic acid ethyl ester]",IC50,[1],100 to 500 nM
"CCCCNC(=O)Oc1cccc(-n2ccc(C(=O)OCCCCCCc3ccccc3)c2)c1 [Example 12, 1-(3-butylcarbamoyloxy-phenyl)-1H-pyrrole-3-carboxylic acid 6-phenyl-hexyl ester]",IC50,[1],100 to 500 nM
"C#CCCCCCCCCCNC(=O)Oc1cccc(-n2ccc(C(N)=O)c2)c1 [Example 2, undec-10-ynyl-carbamic acid 3-(3-carbamoyl-pyrrol-1-yl)-phenyl ester]",IC50,[1],< 10 nM
same,Ki,[1],< 10 nM
same,"analgesic activity, dose response","mechanical hyperalgesia; 30 mg/kg (FIGS. 2, 3 and 4)",did exert analgesic activity
same,"analgesic activity, dose response",mechanical hyperalgesia; [2],higher effect
same,"analgesic activity (nociceptive threshold, paw withdrawal)",mechanical hyperalgesia,significant analgesic activity
"Cc1oc(-c2cccc(OC(=O)NCCCCCCc3ccccc3)c2)cc1C(N)=O [Example 9, (6-phenyl-hexyl)-carbamic acid 3-(4-carbamoyl-5-methyl-furan-2-yl)-phenyl ester]",IC50,[1],10 to 100 nM
same,Ki,[1],< 10 nM
same,inhibitory activity on CB1R,CB1R,−−−− (1000 times [IC50] with an inhibitory activity on the target <60%)
same,inhibitory activity on CB2R,CB2R,−−−− (1000 times [IC50] with an inhibitory activity on the target <60%)
same,inhibitory activity on TRPV1,TRPV1,−−−− (1000 times [IC50] with an inhibitory activity on the target <60%)
same,inhibitory activity on NAPE-PLD,NAPE-PLD,−−−− (1000 times [IC50] with an inhibitory activity on the target <60%)
same,"AMT, % @ 1 μM",AMT,80% @ 1 μM
same,inhibitory activity on DAGL,DAGL,−−−− (1000 times [IC50] with an inhibitory activity on the target <60%)
same,inhibitory activity on MAGL,MAGL,−−−− (1000 times [IC50] with an inhibitory activity on the target <60%)
"CCCCNC(=O)Oc1cccc(-n2ccc(C(N)=O)c2)c1 [Example 1, butyl-carbamic acid 3-(3-carbamoyl-pyrrol-1-yl)-phenyl ester]",IC50,[1],100 to 500 nM
same,Ki,[1],10 to 100 nM
"CCCCNC(=O)Oc1cccc(-c2oc(C)cc2C(N)=O)c1 [Example 5, butyl-carbamic acid 3-(3-carbamoyl-5-methyl-furan-2-yl)-phenyl ester]",IC50,[1],500 to 5000 nM
same,Ki,[1],100 to 500 nM
"Cc1oc(-c2cccc(OC(=O)NC3CCCCC3)c2)cc1C(N)=O [Example 8, cyclohexyl-carbamic acid 3-(4-carbamoyl-5-methyl-furan-2-yl)-phenyl ester]",IC50,[1],100 to 500 nM
"NC(=O)c1ccn(-c2cccc(OC(=O)NCCCCCCc3ccccc3)c2)c1 [Example 4, (6-phenyl-hexyl)-carbamic acid 3-(3-carbamoyl-pyrrol-1-yl)-phenyl ester]",IC50,[1],< 10 nM
same,Ki,[1],< 10 nM
same,inhibitory activity on CB1R,CB1R,−−−− (1000 times [IC50] with an inhibitory activity on the target <60%)
same,inhibitory activity on CB2R,CB2R,−−−− (1000 times [IC50] with an inhibitory activity on the target <60%)
same,inhibitory activity on TRPV1,TRPV1,−−−− (1000 times [IC50] with an inhibitory activity on the target <60%)
same,inhibitory activity on NAPE-PLD,NAPE-PLD,−−−− (1000 times [IC50] with an inhibitory activity on the target <60%)
same,"AMT, % @ 1 μM",AMT,80% @ 1 μM
same,inhibitory activity on DAGL,DAGL,−−−− (1000 times [IC50] with an inhibitory activity on the target <60%)
same,inhibitory activity on MAGL,MAGL,−−−− (1000 times [IC50] with an inhibitory activity on the target <60%)
same,"analgesic activity, dose response","mechanical hyperalgesia; 30 mg/kg (FIGS. 2, 3 and 4)",did exert analgesic activity
same,"analgesic activity, dose response",mechanical hyperalgesia; [2],higher effect
same,"analgesic activity (nociceptive threshold, paw withdrawal)",mechanical hyperalgesia,significant analgesic activity
"Cc1cc(C(N)=O)c(-c2cccc(OC(=O)NC3CCCCC3)c2)o1 [Example 13, cyclohexyl-carbamic acid 3-(3-carbamoyl-5-methyl-furan-2-yl)-phenyl ester]",IC50,[1],100 to 500 nM
"Cc1cc(C(N)=O)c(-c2cccc(OC(=O)NC3CCCCC3)c2)s1 [Example 14, cyclohexyl-carbamic acid 3-(3-carbamoyl-5-methyl-thiophen-2-yl)-phenylester]",IC50,[1],100 to 500 nM
"Cc1cc(C(N)=O)c(-c2cccc(OC(=O)NCCCCCCc3ccccc3)c2)s1 [Example 7, (6-phenyl-hexyl)-carbamic acid 3-(3-carbamoyl-5-methyl-thiophen-2-yl)-phenyl ester]",IC50,[1],< 10 nM
same,Ki,[1],< 10 nM
same,inhibitory activity on CB1R,CB1R,−−−− (1000 times [IC50] with an inhibitory activity on the target <60%)
same,inhibitory activity on CB2R,CB2R,−−−− (1000 times [IC50] with an inhibitory activity on the target <60%)
same,inhibitory activity on NAPE-PLD,NAPE-PLD,−−−− (1000 times [IC50] with an inhibitory activity on the target <60%)
same,"AMT, % @ 1 μM",AMT,60% @ 1 μM
same,inhibitory activity on MAGL,MAGL,−−−− (1000 times [IC50] with an inhibitory activity on the target <60%)
"C#CCCCCCCCCCOC(=O)c1ccn(-c2cccc(OC(=O)NCCCC)c2)c1 [Example 11, 1-(3-butylcarbamoyloxy-phenyl)-1H-pyrrole-3-carboxylic acid undec-10-ynyl ester]",IC50,[1],100 to 500 nM
"NC(=O)c1ccn(-c2cccc(OC(=O)NC3CCCCC3)c2)c1 [Example 3, cyclohexyl-carbamic acid 3-(3-carbamoyl-pyrrol-1-yl)-phenyl ester]",IC50,[1],100 to 500 nM
same,Ki,[1],10 to 100 nM
